Results as given in the NIST ThermoML archive (doi:10.1016/j.fluid.2018.04.025).
± gives the expanded uncertainty stated by the source.

Test: xn = mol fraction of the nth substance listed
Details: 101 kPa, Liquid; for viscosity: Falling or rolling sphere viscometry; for speed of sound: Frequency=3 MHz, Sing-around technique in a fixed-path interferometer; for mass density: Vibrating tube method

CCCC[n+]1ccn(C)c1.O=S(=O)([N-]S(=O)(=O)C(F)(F)F)C(F)(F)F + CCCO
Details | mass density, 298.15 K [kg/m3] | mass density, 303.15 K [kg/m3] | mass density, 308.15 K [kg/m3] | speed of sound, 298.15 K [m/s] | speed of sound, 303.15 K [m/s] | speed of sound, 308.15 K [m/s] | viscosity, 298.15 K [mPa·s] | viscosity, 303.15 K [mPa·s] | viscosity, 308.15 K [mPa·s]
x1 = 0.1034 | 997.935 ± 0.51 | 993.513 ± 0.33 | 989.047 ± 0.33 | 1181.5 ± 0.96 | 1167.2 ± 0.89 | 1152.9 ± 0.89 | 3.73 ± 0.6 | 3.24 ± 0.6 | 2.85 ± 0.6
x1 = 0.203 | 1117.34 ± 0.3 | 1112.85 ± 0.27 | 1108.26 ± 0.27 | 1181.2 ± 1 | 1168 ± 0.98 | 1154.8 ± 0.98 | 5.98 ± 0.6 | 5.16 ± 0.6 | 4.5 ± 0.6
x1 = 0.3043 | 1200.89 ± 0.31 | 1196.18 ± 0.32 | 1191.48 ± 0.31 | 1188.3 ± 1.1 | 1175.7 ± 1.1 | 1163.1 ± 1.1 | 8.11 ± 0.6 | 6.94 ± 0.6 | 6.01 ± 0.6
x1 = 0.409 | 1263.74 ± 0.42 | 1259 ± 0.43 | 1254.22 ± 0.43 | 1196.8 ± 1.2 | 1184.7 ± 1.2 | 1172.6 ± 1.2 | 10.82 ± 0.81 | 9.22 ± 0.61 | 7.94 ± 0.6
x1 = 0.5068 | 1308.36 ± 0.58 | 1303.62 ± 0.58 | 1298.84 ± 0.57 | 1203 ± 1.4 | 1191.2 ± 1.4 | 1179.5 ± 1.4 | 14.12 ± 0.81 | 11.91 ± 0.81 | 10.21 ± 0.81
x1 = 0.603 | 1343.44 ± 0.76 | 1338.71 ± 0.76 | 1333.94 ± 0.76 | 1209.4 ± 1.5 | 1197.8 ± 1.5 | 1186.3 ± 1.5 | 19.03 ± 0.82 | 16.24 ± 0.82 | 13.72 ± 0.81
x1 = 0.6981 | 1371.86 ± 0.98 | 1367.11 ± 0.97 | 1362.35 ± 0.96 | 1214.5 ± 1.7 | 1203.2 ± 1.7 | 1191.8 ± 1.7 | 24.41 ± 0.84 | 20.52 ± 0.83 | 17.43 ± 0.82
x1 = 0.809 | 1399.1 ± 1.3 | 1394.38 ± 1.3 | 1389.63 ± 1.2 | 1219.9 ± 1.8 | 1208.6 ± 1.8 | 1197.5 ± 1.8 | 31.43 ± 0.88 | 26.11 ± 0.85 | 22.13 ± 0.84
x1 = 0.8925 | 1416.56 ± 1.5 | 1411.81 ± 1.5 | 1407.06 ± 1.5 | 1223.7 ± 2 | 1212.6 ± 2 | 1201.6 ± 2 | 39.52 ± 0.93 | 32.53 ± 0.89 | 27.21 ± 0.86
x1 = 1 | 1436.02 ± 1.9 | 1431.22 ± 1.9 | 1426.43 ± 1.8 | 1227.3 ± 2.1 | 1216.3 ± 2.1 | 1205.5 ± 2.1 | 51.22 ± 0.97 | 41.91 ± 0.96 | 34.63 ± 0.91
